Reference: patent US20080090805A1, “CB-1 MODULATING COMPOUNDS AND THEIR USE” (ACADIA PHARMACEUTICALS INC., priority 2005, published 2008)

Molecular target: native CB1 receptors (Rattus norvegicus, UniProt P20272)
Test: CB1 receptor rat binding assay ([3H]SR141716A, rat brain membranes)
Details: rat brain membranes, [3H]SR141716A; for Ki: read-out: Binding rat pKi (converted)

Sequence of native CB1 receptors (P20272 whole entry): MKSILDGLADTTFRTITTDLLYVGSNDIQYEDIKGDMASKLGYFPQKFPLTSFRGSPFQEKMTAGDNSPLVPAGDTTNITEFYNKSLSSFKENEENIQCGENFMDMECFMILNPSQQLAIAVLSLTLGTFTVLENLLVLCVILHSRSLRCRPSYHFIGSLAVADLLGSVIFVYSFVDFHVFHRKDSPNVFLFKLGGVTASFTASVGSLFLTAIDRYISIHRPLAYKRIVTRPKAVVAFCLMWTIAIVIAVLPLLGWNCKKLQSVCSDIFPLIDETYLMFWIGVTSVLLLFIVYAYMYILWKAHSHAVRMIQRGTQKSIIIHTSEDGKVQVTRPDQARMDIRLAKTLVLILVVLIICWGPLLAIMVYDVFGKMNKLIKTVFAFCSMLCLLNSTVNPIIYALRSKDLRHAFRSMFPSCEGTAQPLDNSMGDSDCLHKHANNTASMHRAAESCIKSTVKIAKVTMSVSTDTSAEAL

Row | Ki | Binding rat Inh % | Structure (SMILES)
1 | 25.1 nM |  | CCCCNC(=O)c1ccc2c(c1)N=C(N1CCCCC1)c1ccccc1S2 [drawing 1325]
2 | 25.1 nM |  | O=C(NCc1ccc(F)cc1)c1ccc2c(c1)N=C(C1CCCCC1)c1ccccc1S2(=O)=O [drawing 1326]
3 | 3.16 nM |  | O=C(NCCCc1ccccc1)c1ccc2c(c1)N=C(c1cccc(Cl)c1)c1ccccc1S2 [drawing 1327]
4 | 3.16 nM |  | O=C(NCc1ccccc1)c1ccc2c(c1)N=C(c1cccc(Cl)c1)c1ccccc1S2 [drawing 1328]
5 | 3.16 nM |  | CC(CNC(=O)c1ccc2c(c1)N=C(C1CCCCC1)c1ccccc1S2)c1ccccc1 (centres unmarked) [drawing 1329]
6 | 25.1 nM |  | O=C(NCCc1cccc(Cl)c1)c1ccc2c(c1)N=C(c1cccc(Cl)c1)c1ccccc1S2 [drawing 1331]
7 | 25.1 nM |  | O=C(NCCc1ccccc1)c1ccc2c(c1)N=C(c1ccccc1)c1ccccc1S2 [drawing 1332]
8 | 25.1 nM | 103% | O=C(NCCc1cccnc1)c1ccc2c(c1)N=C(c1ccc(Cl)cc1)c1ccccc1S2 [drawing 1334]
9 | 3.98 nM |  | O=C(NCCc1ccccc1)c1ccc2c(c1)N=C(c1ccc(F)cc1)c1ccccc1S2 [drawing 1335]
10 | 3.98 nM |  | O=C(NCc1ccc(F)cc1)c1ccc2c(c1)N=C(C1CCCCC1)c1ccccc1S2 [drawing 1336]
11 | 3.98 nM | 108% | O=C(NCCC(F)(F)F)c1ccc2c(c1)N=C(c1cccc(F)c1)c1ccccc1S2 [drawing 1337]
12 | 3.98 nM |  | O=C(NCc1cccc(Cl)c1)c1ccc2c(c1)N=C(C1CCCCC1)c1ccccc1S2 [drawing 1338]
13 | 25.1 nM | 96% | O=C(NCCc1ccncc1)c1ccc2c(c1)N=C(c1ccc(Cl)cc1)c1ccccc1S2 [drawing 1339]
14 | 25.1 nM | 60% | O=C(NCCc1ccccn1)c1ccc2c(c1)N=C(c1ccc(Cl)cc1)c1ccccc1S2 [drawing 1340]
15 | 25.1 nM | 101% | O=C(NN1CCCCCC1)c1ccc2c(c1)N=C(c1ccccc1F)c1ccccc1S2 [drawing 1342]
16 | 3.98 nM |  | O=C(NCc1ccccc1)c1ccc2c(c1)N=C(C1CCCCC1)c1ccccc1S2 [drawing 1343]
17 | 3.98 nM | 99% | Cc1ccsc1C1=Nc2cc(C(=O)NCc3cccs3)ccc2Sc2ccccc21 [drawing 1344]
18 | 3.98 nM |  | O=C(NCCc1ccc(Cl)cc1)c1ccc2c(c1)N=C(N1CCCCC1)c1ccccc1S2 [drawing 1345]
19 | 3.98 nM | 89% | Cc1ccc(CNC(=O)c2ccc3c(c2)N=C(c2ccsc2)c2ccccc2S3)o1 [drawing 1346]
20 | 25.1 nM |  | CCCCNC(=O)c1ccc2c(c1)N=C(c1ccccc1F)c1ccccc1S2 [drawing 1348]

Row | Ki | Binding rat Inh % | Structure (SMILES)
21 | 31.6 nM | 86% | CC(C)CCNC(=O)c1ccc2c(c1)N=C(c1ccccn1)c1ccccc1S2 [drawing 1349]
22 | 31.6 nM | 90% | CCOC(=O)c1ccc(C2=Nc3cc(C(=O)NCc4cccnc4)ccc3Sc3ccccc32)cc1 [drawing 1350]
23 | 3.98 nM | 81% | COc1ccc(C2=Nc3cc(C(=O)NCCC(C)C)ccc3Sc3ccccc32)cc1 [drawing 1351]
24 | 3.98 nM |  | O=C(NCc1ccc(F)cc1)c1ccc2c(c1)N=C(c1ccccc1)c1ccccc1S2 [drawing 1352]
25 | 3.98 nM | 108% | Cc1cccc(C2=Nc3cc(C(=O)NCc4ccc(C)o4)ccc3Sc3ccccc32)n1 [drawing 1353]
26 | 31.6 nM |  | O=C(NCc1ccccc1Br)c1ccc2c(c1)N=C(c1ccccc1F)c1ccccc1S2 [drawing 1355]
27 | 31.6 nM | 108% | C[C@@H]1CCC[C@H](C)N1NC(=O)c1ccc2c(c1)N=C(c1ccc(F)cc1)c1ccccc1S2 [drawing 1356]
28 | 31.6 nM |  | CCCC1=Nc2cc(C(=O)NCCCc3ccccc3)ccc2Sc2ccccc21 [drawing 1357]
29 | 31.6 nM | 89% | COCCNC(=O)c1ccc2c(c1)N=C(c1ccc(Br)cc1)c1ccccc1S2 [drawing 1358]
30 | 3.98 nM | 95% | CC(C)CNC(=O)c1ccc2c(c1)N=C(c1ccc(Cl)s1)c1ccc(F)cc1S2 [drawing 1359]
31 | 31.6 nM | 72% | CC(C)NC(=O)c1ccc2c(c1)N=C(c1ccc(Cl)cc1F)c1ccccc1S2 [drawing 1363]
32 | 31.6 nM | 71% | COc1ccc(C2=Nc3cc(C(=O)NC4CCCC4)ccc3Sc3ccccc32)cc1 [drawing 1364]
33 | 31.6 nM |  | O=C(NCc1ccccc1)c1ccc2c(c1)N=C(c1ccccc1F)c1ccccc1S2 [drawing 1365]
34 | 31.6 nM |  | O=C(NCc1ccccc1Cl)c1ccc2c(c1)N=C(N1CCCCC1)c1ccccc1S2 [drawing 1366]
35 | 3.98 nM |  | O=C(NCCc1ccc(Cl)cc1)c1ccc2c(c1)N=C(c1ccc(F)cc1)c1ccccc1S2 [drawing 1367]
36 | 5.01 nM |  | O=C(NCc1ccccc1)c1ccc2c(c1)N=C(c1ccc(Cl)cc1)c1ccccc1S2 [drawing 1368]
37 | 5.01 nM | 93% | O=C(NCc1ccco1)c1ccc2c(c1)N=C(c1ccc(Cl)cc1)c1ccccc1S2 [drawing 1369]
38 | 5.01 nM | 103% | O=C(NCc1ccco1)c1ccc2c(c1)N=C(c1ccc(F)cc1)c1ccccc1S2 [drawing 1370]
39 | 31.6 nM | 84% | Cc1cnc(-c2ccc3c(c2)N=C(c2ccc(Cl)cc2)c2ccccc2S3)[nH]1 [drawing 1371]
40 | 31.6 nM | 90% | CC(C)NC(=O)c1ccc2c(c1)N=C(c1ccc(Cl)cc1)c1ccccc1S2 [drawing 1372]

Row | Ki | Binding rat Inh % | Structure (SMILES)
41 | 31.6 nM | 95% | O=C(NN1CCCCC1)c1ccc2c(c1)N=C(c1ccc(Cl)cn1)c1ccccc1S2 [drawing 1373]
42 | 5.01 nM |  | O=C(NCc1cccc(Cl)c1)c1ccc2c(c1)N=C(c1cccc(Cl)c1)c1cc(F)ccc1S2 [drawing 1375]
43 | 5.01 nM |  | O=C(NCCc1ccc(Cl)cc1)c1ccc2c(c1)N=C(c1ccc(Cl)cc1)c1ccccc1S2 [drawing 1376]
44 | 5.01 nM | 97% | O=C(NCCC(F)(F)F)c1ccc2c(c1)N=C(c1ccc(Cl)cc1F)c1ccccc1S2 [drawing 1377]
45 | 5.01 nM | 83% | CCCCNC(=O)c1ccc2c(c1)N=C(c1ccc(Br)cn1)c1ccccc1S2 [drawing 1378]
46 | 31.6 nM |  | CC(NC(=O)c1ccc2c(c1)N=C(c1ccccc1)c1ccccc1S2)c1ccccc1 (centres unmarked) [drawing 1379]
47 | 31.6 nM | 79% | O=C(NN1CCCCC1)c1ccc2c(c1)N=C(c1cccc(Cl)c1)c1ccccc1S2 [drawing 1380]
48 | 31.6 nM | 109% | O=C(NCc1cccs1)c1ccc2c(c1)N=C(c1ccccn1)c1ccccc1S2 [drawing 1381]
49 | 31.6 nM | 102% | Cc1ccsc1C1=Nc2cc(C(=O)NC3CCCC3)ccc2Sc2ccccc21 [drawing 1382]
50 | 5.01 nM | 112% | O=C(NCc1ccco1)c1ccc2c(c1)N=C(c1ccc(Cl)s1)c1ccccc1S2 [drawing 1383]
51 | 5.01 nM | 95% | O=C(NCc1cccs1)c1ccc2c(c1)N=C(c1cccc(F)c1)c1ccccc1S2 [drawing 1384]
52 | 5.01 nM | 84% | O=C(NN1CCCCCC1)c1ccc2c(c1)N=C(c1ccc(Cl)cc1F)c1ccccc1S2 [drawing 1386]
53 | 31.6 nM | 64% | CCCNC(=O)c1ccc2c(c1)N=C(c1sccc1C)c1ccccc1S2 [drawing 1387]
54 | 31.6 nM |  | O=C(NCc1ccccc1Br)c1ccc2c(c1)N=C(c1ccc(Cl)cc1)c1ccccc1S2 [drawing 1388]
55 | 31.6 nM |  | O=C(NCc1cccc(Cl)c1)c1ccc2c(c1)N=C(c1ccc(F)cc1)c1ccccc1[S+]2[O-] (centres unmarked) [drawing 1390]
56 | 5.01 nM |  | O=C(NCc1ccccc1Br)c1ccc2c(c1)N=C(C1CCCCC1)c1ccccc1S2 [drawing 1392]
57 | 5.01 nM | 87% | O=C(NN1CCCCC1)c1ccc2c(c1)N=C(c1ccc(Cl)c(F)c1)c1ccccc1S2 [drawing 1394]
58 | 31.6 nM |  | CCCC1=Nc2cc(C(=O)NCC(C)c3ccccc3)ccc2Sc2ccccc21 (centres unmarked) [drawing 1395]

Row | Structure (SMILES) | Ki | Binding rat Inh %
59 | CC(C)CCNC(=O)c1ccc2c(c1)N=C(c1ccc(F)cc1)c1ccccc1S2 [drawing 1330] | 3.98 nM | 91%
60 | O=C(NCCc1cccnc1)c1ccc2c(c1)N=C(c1cccc(F)c1)c1ccccc1S2 [drawing 1333] | 25.1 nM | 94%
61 | O=C(NCc1ccccc1Cl)c1ccc2c(c1)N=C(c1ccc(Cl)cc1)c1ccccc1S2 [drawing 1341] | 25.1 nM | 
62 | CC(C)CNC(=O)c1ccc2c(c1)N=C(c1ccc(Br)cc1)c1ccccc1S2 [drawing 1354] | 3.98 nM | 77%
63 | O=C(NCCC(F)(F)F)c1ccc2c(c1)N=C(c1ccc(Cl)cc1)c1ccccc1S2 [drawing 1360] | 3.98 nM | 99%
64 | CC(C)CNC(=O)c1ccc2c(c1)N=C(c1cccc(Cl)c1)c1ccccc1S2 [drawing 1361] | 3.98 nM | 99%
65 | CC(CNC(=O)c1ccc2c(c1)N=C(c1ccc(F)cc1)c1ccccc1S2)c1ccccc1 (centres unmarked) [drawing 1362] | 3.98 nM | 
66 | O=C(NN1CCCCC1)c1ccc2c(c1)N=C(c1cccc(F)c1)c1ccccc1S2 [drawing 1374] | 31.6 nM | 94%
67 | O=C(NN1CCCCC1)c1ccc2c(c1)N=C(c1ccc(Cl)s1)c1ccccc1S2 [drawing 1385] | 5.01 nM | 88%
68 | O=C(NCCc1ccncc1)c1ccc2c(c1)N=C(c1cccc(F)c1)c1ccccc1S2 [drawing 1389] | 31.6 nM | 88%
69 | O=C(NCc1ccc(F)cc1)c1ccc2c(c1)N=C(c1cccc(Cl)c1)c1ccccc1S2 [drawing 1391] | 5.01 nM | 
70 | C[C@@H]1CCC[C@H](C)N1NC(=O)c1ccc2c(c1)N=C(c1ccc(Cl)c(Cl)c1)c1ccccc1S2 [drawing 1393] | 5.01 nM | 114%
